Assay type in all cases: in vivo
One data set concerns CYPERUS IRIA. The data set is described as follows: Preemergence weed control under flooded paddy conditions, CYPIR (Rice Flatsedge). As to conditions: 0.500 kg/ha, preemergence, 3-4 weeks after treatment. As to the method: (§1) Results of herbicide evaluation are expressed on a rating scale (0-9). The scale is based upon a visual observation of plant stand, vigor, malformation, size, chlorosis and overall plant appearance as compared with a control.
(§2) Preemergence herbicidal activity under flooded paddy conditions is determined as follows: plant seeds or propagating organs are planted in the top 0.5 cm of silt loam soil in 32 oz. plastic containers with a diameter of 10.5 cm and no drainage holes. Water is added to these containers and maintained at 1.5 to 3 cm above the soil surface for the duration of the experiment. […] The treated containers are placed on greenhouse benches and cared for according to normal greenhouse procedures.- Three to four weeks after treatment the test is terminated and each container is examined and herbicidal effect rated according to the rating system provided in Example 40. The compounds evaluated are reported by compound number given in Example 40.
(§3) Plant species employed in this example are reported by header abbreviation, common name and scientific name.

In data set [1] the test system is ECHINOCHLOA ORYZOIDES (ARD.)FRITSCH. As to the kind of experiment: Preemergence weed control under flooded paddy conditions, ECHORC (Watergrass (Calif.)). The note with it: 0.500 kg/ha, preemergence, 3-4 weeks after treatment. On the procedure:
as §1, §2, §3

A further data set concerns IPOMOEA SPP. As to the kind of experiment: Postemergence herbicidal evaluation, IPOSS (Morningglory spp.). The method, boiled down:
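Seedlings of morningglory (Ipomoea spp.) were raised in jiffy flats for roughly two weeks. They were then sprayed postemergence through a nozzle at 40 psi with test compound dispersed in 50/50 acetone/water containing 0.5% TWEEN®20 surfactant. Plants were kept on greenhouse benches under standard care and visually rated 0-9 against controls four to five weeks after treatment.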

Data set [2] concerns GLYCINE MAX(L) MERR. CV. WILLIAMS
As to the kind of experiment: Postemergence herbicidal evaluation, GLXMAW (Soybean, Williams). More on the design: key to GLXMAW rating / Herbicidal effect rating, GLXMAW / GLXMAW: 0-9 visual rating scale vs untreated control. As to the method: (§4) In the tests, seedling plants are grown in jiffy flats for about two weeks. The test compounds are dispersed in 50/50 acetone/water mixtures containing 0.5% TWEEN®20, a polyoxyethylene sorbitan monolaurate surfactant of Atlas Chemical Industries, in sufficient quantities to provide the equivalent of about 0.125 kg to 0.500 kg per hectare of active compound when applied to the plants through a spray nozzle operating at 40 psi for a predetermined time. After spraying, the plants are placed on greenhouse benches and are cared for in the usual manner, commensurate with conventional greenhouse practices. From four to five weeks after treatment, the seedling plants are examined and rated according to the rating system set forth below. Where more than one test is involved for a given compound, the data are averaged.
(§5) Plant species employed in these evaluations are reported by header abbreviation, common name and scientific name.
as §1

In data set [3] the test system is CYPERUS SEROTINUS, ROTTB. The data set is described as follows: Preemergence weed control under flooded paddy conditions, CYPSE (Flatsedge). As to conditions: 0.500 kg/ha, preemergence, 3-4 weeks after treatment. The method, boiled down: (§6)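 Seeds or propagules were planted 0.5 cm deep in silt loam, with flood water held at 1.5 to 3 cm. Compound in 50/50 aqueous/acetone was pipetted into the flood water at about 0.5, 0.25, 0.125 and 0.063 kg/ha. Injury was rated visually on a 0-9 scale against a control 3-4 weeks after treatment.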

The test system of another data set is GALIUM APARINE. As to the kind of experiment: Postemergence herbicidal evaluation, GALAP (Galium). More on the design: key to GALAP rating / Herbicidal effect rating, GALAP / GALAP: 0-9 visual rating scale vs untreated control. A digest of the protocol:
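Galium (GALAP) seedlings were raised in jiffy flats for about two weeks, then sprayed with test compounds dispersed in 50/50 acetone/water containing 0.5% TWEEN®20, delivered through a nozzle at 40 psi. Plants were kept on greenhouse benches and visually rated 0-9 against a control four to five weeks later; repeat tests were averaged.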

In data set [4] the test system is AMBROSIA ARTEMISIIFOLIA, L. The data set is described as follows: Postemergence herbicidal evaluation, AMBEL (Ragweed, Common). A digest of the protocol: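 Common ragweed (Ambrosia artemisiifolia) seedlings were raised in jiffy flats for roughly two weeks, then sprayed postemergence through a nozzle at 40 psi with the test compound dispersed in 50/50 acetone/water carrying 0.5% TWEEN®20. The plants were kept on greenhouse benches under conventional care. Four to five weeks later, injury was rated visually on a 0-9 scale, and repeat tests were averaged.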

The subject of data set [5] is ECHINOCHLOA CRUS-GALLI, (L) BEAU. As to the kind of experiment: Postemergence herbicidal evaluation, ECHCG (Barnyardgrass). More on the design: key to ECHCG rating / Herbicidal effect rating, ECHCG / ECHCG: 0-9 visual rating scale vs untreated control. As to the method: as §4, §5, §1
The subject of a further data set is SAGITTARIA PYGMAEA, L. As to the kind of experiment: Preemergence weed control under flooded paddy conditions, SAGPY (Arrowhead (Pygmaea)). The note with it: 0.500 kg/ha, preemergence, 3-4 weeks after treatment. A digest of the protocol: as §6
The test system of another data set is CHENOPODIUM ALBUM, L. The data set is described as follows: Postemergence herbicidal evaluation, CHEAL (Lambsquarters, Common). The method, boiled down:
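Seedlings of common lambsquarters (Chenopodium album) were raised in jiffy flats for roughly two weeks, then sprayed postemergence through a nozzle at 40 psi with test compound dispersed in 50/50 acetone/water containing 0.5% TWEEN®20 surfactant. Plants were kept on greenhouse benches under standard care and rated visually on a 0-9 scale versus controls.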

Data set [6] relates to ORYZA SATIVA, L. TEBONNET
As to the kind of experiment: Rice tolerance to post-transplant applications under flooded paddy conditions, ORYSAT (Rice, Tebonnet). The note with it: 0.500 kg/ha, post-transplant rice, 3-4 weeks after treatment. The method, boiled down:
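Two ten-day-old Tebonnet rice seedlings transplanted into silt loam, flooded 1.5–3 cm; three days later the water surface treated with compounds in acetone/water at about 0.5, 0.25, 0.125 and 0.063 kg/ha. Visual 0–9 injury rating versus control after 3–4 weeks in greenhouse.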

The next data set deals with CASSIA OBTUSIFOLIA, L. As to the kind of experiment: Postemergence herbicidal evaluation, CASOB (Sicklepod). More on the design: key to CASOB rating / Herbicidal effect rating, CASOB / CASOB: 0-9 visual rating scale vs untreated control. A digest of the protocol:
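Visual 0–9 scores reflect stand, vigor, malformation, size, chlorosis and overall appearance relative to control, taken 4–5 weeks after spraying two-week-old seedlings with about 0.125–0.500 kg/ha compound in acetone/water/TWEEN 20.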

The test system of data set [7] is ABUTILON THEOPHRASTI, MEDIC. The data set is described as follows: Postemergence herbicidal evaluation, ABUTH (Velvetleaf). The method, boiled down:
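Velvetleaf (Abutilon theophrasti) seedlings were raised in jiffy flats for about two weeks and then sprayed postemergence. The test compound was dispersed in a 50/50 acetone/water mixture containing 0.5% TWEEN®20 and applied through a nozzle operating at 40 psi. Plants were kept on greenhouse benches and rated 0-9 four to five weeks after treatment.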

A further data set concerns […], PRESL. As to the kind of experiment: Preemergence weed control under flooded paddy conditions, MOOVA (Monochoria). As to conditions: 0.500 kg/ha, preemergence, 3-4 weeks after treatment. The method, boiled down:
as §6

In data set [8] the test system is SETARIA VIRIDIS, (L) BEAU. As to the kind of experiment: Postemergence herbicidal evaluation, SETVI (Foxtail, Green). More on the design: key to SETVI rating / Herbicidal effect rating, SETVI / SETVI: 0-9 visual rating scale vs untreated control. On the procedure:
as §4, §5, §1

The subject of data set [9] is ECHINOCHLOA CRUS-GALLI, (L) BEAU. As to the kind of experiment: Preemergence herbicidal evaluation, ECHCG (Barnyardgrass). The note with it: rated four to five weeks after treatment.
Description: as §1
(§7) The preemergence herbicidal activity of the test compounds of the present invention is exemplified by the following tests in which the seeds of a variety of monocotyledonous and dicotyledonous plants are separately mixed with potting soil and planted on top of approximately one inch of soil in separate pint cups. […] The treated cups are then placed on greenhouse benches, watered and cared for in accordance with conventional greenhouse procedures. From four to five weeks after treatment, the tests are terminated and each cup is examined and rated according to the rating system provided in Example 40.
(§8) The compounds evaluated are reported by compound number given in Example 40.

Data set [10] relates to GLYCINE MAX(L) MERR. CV. WILLIAMS
As to the kind of experiment: Preemergence herbicidal evaluation, GLXMAW (Soybean, Williams). As to conditions: rated four to five weeks after treatment.
Description: as §1, §7, §8

Data set [11] deals with ORYZA SATIVA, L. TEBONNET
The data set is described as follows: Postemergence herbicidal evaluation, ORYSAT (Rice, Tebonnet). More on the design: key: 0-9 visual rating scale vs untreated control. On the procedure: as §4, §5, §1

With `COC(=O)Cn1c(=O)n(C)c(=O)n(-c2cc(Oc3cc(Cl)cc(Cl)c3Cl)ccc2[N+](=O)[O-])c1=O` [Compound 25, Methyl 3-[2-nitro-5-(2,3,5-trichloro-phenoxy)phenyl]tetrahydro-5-methyl-2,4,6-trioxo-s-triazine-1(2H)-acetate], the “Herbicidal effect rating, CYPIR” value in the data set with CYPERUS IRIA stood at 0.0. In [1], the “Herbicidal effect rating, ECHORC” value was found to be 0.0. Besides, the IPOSS rating in the data set on IPOMOEA SPP. (Rate 0.125 kg/ha), in the data set with IPOMOEA SPP. (Rate 0.250 kg/ha) and in the data set on IPOMOEA SPP. (Rate 0.500 kg/ha) was 0.0 throughout. Moreover, the GLXMAW rating in data set [2] (Rate 0.125 kg/ha), in [2] (Rate 0.250 kg/ha) and in data set [2] (Rate 0.500 kg/ha) was 0.0 in each case. Moreover, the “Herbicidal effect rating, CYPSE” value in data set [3] worked out at 0.0. Further, the GALAP rating in the data set on GALIUM APARINE (Rate 0.125 kg/ha), with GALIUM APARINE (Rate 0.250 kg/ha) and in the data set with GALIUM APARINE (Rate 0.500 kg/ha) was 0.0 in each case. Moreover, the AMBEL rating in data set [4] (Rate 0.125 kg/ha), in [4] (Rate 0.250 kg/ha) and in data set [4] (Rate 0.500 kg/ha) was 0.0 each time. For the same compound, the ECHCG rating in data set [5] (Rate 0.125 kg/ha), in data set [5] (Rate 0.250 kg/ha) and in [5] (Rate 0.500 kg/ha) was 0.0 in each case. Further, the “Herbicidal effect rating, SAGPY” value in the data set on SAGITTARIA PYGMAEA, L. was determined as 0.0. For the same compound, the CHEAL rating is 0.0 in the data set on CHENOPODIUM ALBUM, L. (Rate 0.125 kg/ha); 0.0 in the data set on CHENOPODIUM ALBUM, L. (Rate 0.250 kg/ha); 0.0 in the data set with CHENOPODIUM ALBUM, L. (Rate 0.500 kg/ha). For the same compound, the “Herbicidal effect rating, ORYSAT” value in [6] is recorded as 0.0. The CASOB rating turned out to be 0.0 in the data set on CASSIA OBTUSIFOLIA, L. (Rate 0.125 kg/ha); 0.0 in the data set with CASSIA OBTUSIFOLIA, L. (Rate 0.250 kg/ha); 0.0 with CASSIA OBTUSIFOLIA, L. (Rate 0.500 kg/ha). In addition, the ABUTH rating in data set [7] (Rate 0.125 kg/ha), in data set [7] (Rate 0.250 kg/ha) and in data set [7] (Rate 0.500 kg/ha) was 0.0 in each case. Also, in data set […], PRESL., the “Herbicidal effect rating, MOOVA” value turned out to be 0.0. In addition, the SETVI rating in data set [8] (Rate 0.125 kg/ha), in [8] (Rate 0.250 kg/ha) and in data set [8] (Rate 0.500 kg/ha) was 0.0 in each case.

Turning to `COC(=O)Cn1c(=O)n(C)c(=O)n(-c2cc(Oc3cc(OC)c(Cl)cc3Cl)ccc2[N+](=O)[O-])c1=O` [Compound 29, Methyl 3-[5-(2,4-dichloro-5-methoxyphenoxy)-2-nitrophenyl]tetrahydro-5-methyl-2,4,6-trioxo-s-triazine-1(2H)-acetate], the “Herbicidal effect rating, CYPIR” value in the data set with CYPERUS IRIA came to 0.0. For the same compound, the “Herbicidal effect rating, ECHORC” value in data set [1] is recorded as 0.0. Moreover, the ECHCG herbicidal rating in data set [9] (Rate 0.125 kg/ha), in [9] (Rate 0.250 kg/ha) and in [9] (Rate 0.500 kg/ha) was 0.0 in each case. Also, the “Herbicidal effect rating, CYPSE” value in data set [3] is given as 0.0. The GLXMAW herbicidal rating in data set [10] (Rate 0.125 kg/ha), in [10] (Rate 0.250 kg/ha) and in data set [10] (Rate 0.500 kg/ha) was 0.0 throughout. Moreover, in the data set with SAGITTARIA PYGMAEA, L., the “Herbicidal effect rating, SAGPY” value came to 0.0. Moreover, the “Herbicidal effect rating, ORYSAT” value in data set [6] is 0.0. Also, in […], PRESL., the “Herbicidal effect rating, MOOVA” value worked out at 0.0.

Turning to `COC(=O)Cn1c(=O)n(C)c(=O)n(-c2cc(Oc3cc(F)c(F)cc3F)ccc2[N+](=O)[O-])c1=O` [Compound 30], the “Herbicidal effect rating, CYPIR” value in the data set on CYPERUS IRIA came to 0.0. Moreover, the “Herbicidal effect rating, ECHORC” value in [1] amounted to 0.0. In addition, the ORYSAT rating in data set [11] (Rate 0.125 kg/ha), in data set [11] (Rate 0.250 kg/ha) and in [11] (Rate 0.500 kg/ha) was 3.0 in each case. Also, the “Herbicidal effect rating, CYPSE” value in data set [3] was found to be 0.0. The “Herbicidal effect rating, SAGPY” value in the data set on SAGITTARIA PYGMAEA, L. was 0.0. Also, the “Herbicidal effect rating, ORYSAT” value in [6] is 1.0. Further, the “Herbicidal effect rating, MOOVA” value in data set […], PRESL. is 0.0.

The values are drawn from patent EP0745595A1, “3-(3-Aryloxyphenyl)-1-(substituted methyl)-s-triazine-2,4,6-oxo or thiotrione herbicidal agents” (American Cyanamid Company, priority 1995, dated 1996).
